{
  "source": "patent US20060025483A1",
  "about": "“(-)-Hydroxycitric acid for protection against soft tissue and arterial calcification” (priority 2004, published 2006)",
  "key": {"[1]": {"conditions": "treated rats; cited from earlier work"}, "[2]": {"test_system": "ACE system", "test": "response of SBP to losartan challenge", "format": "in vivo, Spontaneously hypertensive rats (SHR)", "conditions": "at 6 hours; SHR fed 100 mg HCA per day as new KMgHCA", "text": "Many factors can positively influence blood pressure, e.g., diuretics, antioxidants, regulators of sympathetic/parasympathetic tone, compounds that improve insulin sensitivity and so forth. Therefore, losartan, an angiotensin-2 receptor blocker, was utilized to discover whether the ACE system was involved in the results discussed in Example 1.\nSpontaneously hypertensive rats (SHR) were placed on a diet composed of regular rat chow (60% w/w) and table sugar (40% w/w). This diet reliably elevates blood pressure in this animal model. One group received 100 mg HCA per day in the form of a new potassium-magnesium hydroxycitrate (different from that used in Example 1) via an added 5 g HCA per kg of food mix. Systolic blood pressure and body weight were tested as in Example 1 on a weekly basis.\nWhen losartan was injected, the SBP of both groups decreased. At 6 hours, the SBP were essentially the same. […] Thus, HCA appears to decrease angiotensin-2 in rats and to lower elevated SBP. Although insulin regulation likely is a factor in the blood pressure modulating effect of HCA, this evidence argues that inhibition of ACE is also important. […]"}},
  "data": [
    {"smiles": "O=C(O)CC(O)(C(=O)O)C(O)C(=O)O", "note": "(single isomer, unassigned; (-)) [HCA, (−)-Hydroxycitric acid]", "values": [
      {"measurement": "plasma levels of glucose, insulin, or free fatty acids relative to controls", "setting": "[1]", "result": "no significant differences in plasma levels of glucose, insulin, or free fatty acids"},
      {"measurement": "decrease in SBP after losartan injection", "setting": "[2]", "result": "−21.7±7.0"}
    ]}
  ]
}
